Target: Aldo-keto reductase family 1 member B1 (Homo sapiens, UniProt P15121)
Assay: Enzyme Inhibition Assay
Conditions: pH 6.2; 25 °C
Procedure: The in vitro inhibitory activity of the candidate molecules was determined by recording the decrease of the NADPH absorbance upon enzymatic reduction of […]. The absorbance at 340 nm was monitored with a BMG plate reader. The program GraFit (Version 4.0) was used for fitting the IC50 values.

IC50 [µM] | Structure (SMILES)
4.1 | O=C(O)CSc1nnc(-c2ccc([N+](=O)[O-])o2)o1 [2-{[5-(5-nitrofuran-2-yl)-1,3,4-oxadiazol-2-yl]sulfanyl}acetic acid]
0.53 | O=C(O)CCCc1nc(-c2cccc([N+](=O)[O-])c2)[n-][o+]1 [Ligand 1]
12.4 | O=C(O)CCCc1nc(-c2ccccn2)no1 [4-[3-(pyridin-2-yl)-1,2,4-oxadiazol-5-yl]butanoic acid]
17.7 | O=C(O)CCCc1nc(-c2ccc(Cl)cc2)no1 [Ligand 8]

From BindingDB's records for doi:10.1016/j.jmb.2006.12.004 (University of Marburg, 2007)
